Test results reported in patent US20260355142A1, “AMORPHOUS OTE[…] COMPOSITIONS AND USES THEREOF AND DOSAGE REGIMENS FOR OTENAPROXESUL” (ANTIBE THERAPEUTICS INC., priority 2022, published 2026).
Values after ≈ are worked out from the molar mass of the structure shown. “Also recorded” adds a separate entry of the source. Values belong to the compound of their own block, whether it stands above or below them.

How the values were obtained:
liver adverse effects = assay: Clinical study of three crystalline otenaproxesul regimens, liver safety; type: in vivo, human; conditions: 1500 mg single; 1500 mg + 100 mg Days 2-5; 2000 mg single
Protocol: Data were collected over a 312-hour period at protocol-specified intervals. Sampling was most frequent during the first 2 hours post drug administration. Treatment regimens were (i) otenaproxesul single dose 1500 mg (Total 1500 mg); (ii) crystalline otenaproxesul Day 1 single dose 1500 mg plus 100 mg on Days 2-5 (Total 1900 mg) or (iii) crystalline otenaproxesul single dose 2000 mg (Total 2000 mg).

[1] = Solubility in simulated intestinal fluid; type: physicochemical; conditions: 0.5 wt % SIF
Excerpt: 1 compared to crystalline otenaproxesul in simulated intestinal fluid (SIF).

[2] = Stability/purity of ASDs by HPLC; type: physicochemical; conditions: no storage condition given
Protocol: The stability of the exemplary amorphous solid dispersions of the application were evaluated using HPLC and are shown in Tables 14 A and B.
HPLC analyses were performed on a Waters 2695 or Agilent 1200, or equivalent, instrument. The column was an ACE-5 C18 150 mm×4.6 mm, 5 μm or equivalent column. The flow rate was 1.0 mL/min, the injection volume was 10 μL, the column temperature was 25° C., the sample temperature was 5° C. and the wavelength for detection was 254 nm. Two eluents were used which were either (1) A: 1.8 g K2HPO4·3H2O dissolved in 1000 ml of water and pH adjusted to 5.5 using orthophosphoric acid and B: acetonitrile; or (2) A: 1.4 g K2HPO4·3H2O dissolved in 1000 ml of water and pH adjusted to 7.0 with 85% phosphoric acid and B: acetonitrile.

ALT and AST = assay: Analysis of liver transaminase elevations over the clinical studies; type: in vivo, human
Protocol: These LTEs were detected after the patients had completed their full treatment course.
When liver safety findings are observed, cumulative naproxen metabolite plasma drug exposure over the prescribed treatment period exceeded 4000 μg*hr/mL.

[3] = Phase 1 SAD clinical trial, plasma naproxen (M25) levels; type: in vivo, human; conditions: single oral dose of about 1500 mg to 2000 mg
Protocol: Otenaproxesul (crystalline form) was orally administered at a range of doses to healthy volunteers, both as a single dose, and as a daily (or twice-daily) dose for 14 days. Each cohort consisted of 8 subjects, with 6 receiving otenaproxesul and 2 receiving placebo. A total of 8 cohorts were studied in the single-dose study (25 mg, 75 mg, 150 mg, 300 mg, 500 mg, 1000 mg, 1500 mg and 2000 mg), and 3 cohorts in the multiple-dose study (250 and 750 once daily, and 750 mg bid (e.g., 1500 mg/day) for 14 days). All adverse events were recorded, and blood samples were drawn prior to and for at least 72 h after drug administration for measurement of otenaproxesul-derived naproxen levels. Routine cardiovascular, renal, hepatic and hematological biomarkers were monitored, along with clinical signs. […]
It is noted from the pharmacokinetic curves in FIG. 1 showing naproxen metabolite (M25) plasma levels following single dose crystalline otenaproxesul administrations in healthy subjects from the Phase 1 single ascending dose (SAD) study in Example 1, the time to attain maximal plasma concentration of M25 varies widely between 6 and 48 hours across the dosage spectrum. […] Therefore, while not being bound by theory, a single 2000 mg treatment is predicted to provide pain relief for 3 days and possibly to 5 days based upon measured and projected M25 plasma concentrations. […]

[4] = Phase 2b study, safety (treatment-emergent adverse events); type: in vivo, human; conditions: for hypertension or blood pressure increased: 2 patients
Protocol: Study visits occurred on Day 1, Day 4, and Day 14 of the 14-day treatment phase and included WOMAC evaluations, blood samples for thromboxane B2 TXB2 and pharmacokinetic (PK) testing. The safety of otenaproxesul was evaluated through monitoring for adverse events (AEs), changes in physical examinations, vital signs measurements, and clinical laboratory evaluations.
Patients were followed for safety for up to 24 days following initiation of treatment. A final visit for safety assessments occurred upon study completion on Day 24 or early termination.
All patients receiving any amount of study treatment (otenaproxesul or placebo) were included in the safety analysis. Each treatment arm was evaluated separately. In addition to the evaluation and categorization of treatment-emergent adverse events (TEAEs), listings of laboratory test results collected at Baseline and during the study were generated. Descriptive statistics summarizing the changes in those laboratory tests over time were presented.

solubility at 2 h [1]: 51 µg/mL (≈ 140 µM)
ATB-346 API [2]: 99.45%
RRT-0.84 [2]: 0.18%
RRT-0.85 ATB-346-Amide [2]: 0.07%
RRT-1.10 [2]: 0.25%
SMILES: COc1ccc2cc([C@H](C)C(=O)Oc3ccc(C(N)=S)cc3)ccc2c1 [crystalline otenaproxesul]
liver adverse effects (liver adverse effects): No subjects in any of the three treatment arms exhibited any liver adverse effects

duration of plasma naproxen metabolite greater than about 10 μg/mL [3]: over 72 hours
SMILES: COc1ccc2cc([C@H](C)C(=O)Oc3ccc(C(N)=S)cc3)ccc2c1 [otenaproxesul, (S)-4-carbamothioylphenyl 2-(6-methoxynaphthalen-2-yl) propanoate]
adverse liver effects (transient elevations of liver transaminases) (ALT and AST; multiple dose 150, 200 or 250 mg for seven days): no observed adverse liver effects
liver transaminase elevations (ALT and AST; multiple dose 150, 200 or 250 mg, 14 days or less): not detected
cumulative plasma naproxen exposure at which LTEs are not observed (ALT and AST; over the prescribed treatment): ≤ 4000 µg·h/mL
cumulative naproxen plasma exposure when liver safety findings are observed (ALT and AST; over the prescribed treatment period): exceeded 4000 μg*hr/mL
patients with dose-related liver transaminase elevation (ALT and AST; phase 2 study): approximately 10%
liver transaminase elevations (ALT and AST; single dose 25 mg to 2000 mg (crystalline)): not detected; also recorded: no observed adverse liver effects
hypertension or hypotension events ([4]; 150 mg): No patients
patients with TEAEs ([4]; 150 mg): 37.7%
hypotension ([4]; 200 mg, 1 patient): 0.8%
hypertension or blood pressure increased ([4]; 200 mg): 1.6%
patients with TEAEs ([4]; 250 mg): 43.9%
hypertension or blood pressure increased ([4]; 250 mg): 1.5%
TEAE headache ([4]; all otenaproxesul groups): 5.0%
TEAE hepatic enzyme increased ([4]; all otenaproxesul groups): 8.2%
patients with at least 1 TEAE ([4]; all otenaproxesul groups): 40.9%
gastrointestinal disorder TEAEs ([4]; all otenaproxesul groups, 14-day treatment): 14.5%
tolerability ([4]; all three doses, 14 days): well tolerated at all three administered doses
discontinuation due to gastrointestinal TEAEs ([4]; all three treatment arms): none were discontinued due to TEAEs related to gastrointestinal adverse effects
serum creatinine ([4]; one patient, 200 mg for 14 days, Day 24): 1.5 ×ULN
